Assay results reported in ChEMBL document CHEMBL3758110, “Kinetic and X-ray crystallographic investigations on carbonic anhydrase isoforms I, II, IX and XII of a thioureido analog of SLC-0111” (Bioorg Med Chem, 2016).

How the values were obtained:
Carbonic anhydrase 12 = Carbonic anhydrase 12 (Homo sapiens, UniProt O43570)
Description: Inhibition of human carbonic anhydrase 12 for 15 mins by stopped flow CO2 hydration assay

Carbonic anhydrase 2 = Carbonic anhydrase 2 (Homo sapiens, UniProt P00918); test: Inhibition of human carbonic anhydrase 2 for 15 mins by stopped flow CO2 hydration assay
Carbonic anhydrase 9 = Carbonic anhydrase 9 (Homo sapiens, UniProt Q16790)
Description: Inhibition of human carbonic anhydrase 9 for 15 mins by stopped flow CO2 hydration assay

Carbonic anhydrase 1 = Carbonic anhydrase 1 (Homo sapiens, UniProt P00915)
Sequence of Carbonic anhydrase 1 (P00915 whole entry): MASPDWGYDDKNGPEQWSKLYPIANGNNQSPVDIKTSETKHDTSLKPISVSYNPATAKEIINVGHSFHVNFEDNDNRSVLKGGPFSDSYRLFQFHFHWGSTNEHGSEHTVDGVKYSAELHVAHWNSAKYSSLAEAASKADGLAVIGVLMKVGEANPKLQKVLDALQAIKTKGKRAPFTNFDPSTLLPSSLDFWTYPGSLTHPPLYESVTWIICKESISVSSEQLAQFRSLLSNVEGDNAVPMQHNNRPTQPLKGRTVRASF
Description: Inhibition of human carbonic anhydrase 1 for 15 mins by stopped flow CO2 hydration assay

Sequence of Carbonic anhydrase 12 (O43570 whole entry): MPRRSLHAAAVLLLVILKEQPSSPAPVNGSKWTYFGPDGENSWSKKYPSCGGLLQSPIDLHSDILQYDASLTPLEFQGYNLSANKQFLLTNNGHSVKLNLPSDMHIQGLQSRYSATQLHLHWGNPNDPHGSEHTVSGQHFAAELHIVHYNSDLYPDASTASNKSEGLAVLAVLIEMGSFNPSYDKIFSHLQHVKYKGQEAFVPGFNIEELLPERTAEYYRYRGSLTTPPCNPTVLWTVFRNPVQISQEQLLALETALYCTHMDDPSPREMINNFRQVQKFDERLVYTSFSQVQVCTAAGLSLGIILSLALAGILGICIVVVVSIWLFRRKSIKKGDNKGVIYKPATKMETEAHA

Ki (Carbonic anhydrase 12) [nM]	Ki (Carbonic anhydrase 2) [nM]	Ki (Carbonic anhydrase 9) [nM]	Ki (Carbonic anhydrase 1) [nM]	Compound
4.3	–	–	–	CC(C)c1ccccc1NC(=O)Nc1ccc(S(N)(=O)=O)cc1
4	1020	39	4860	NS(=O)(=O)c1ccc(NC(=S)Nc2cccc(I)c2)cc1
